Measurements from patent publication US10858364B2, “Imidazopyrazine inhibitors of Bruton's tyrosine kinase” (Acerta Pharma B.V., priority 2016, dated 2020).

Key:
anti-IgM-induced CD69 = test: Human PBMC anti-IgM-induced CD69 assay; type: cell-based; conditions: CD19+ B cells, 2 h compound, 18 h anti-IgM, read-out: hPBMC: anti-IgM-induced CD69 EC50
Protocol: Whole blood was collected in heparin-coated Vacutainer tubes (BD Biosciences, San Jose, Calif.) and used for isolation of PBMCs using Ficoll-Hypaque (Pharmacia, Uppsala, Sweden). Isolated PBMCs were cryopreserved in 90% FCS/10% DMSO until later use.
Cells from cryogenic storage were thawed in a 37° C. water bath, diluted with RPMI/1% FCS, washed 2 times, and then plated at 2×10^5 cells per well in RPMI/10% FCS in 96 well plates.
Serial dilutions […] from 10 mM to 316 nM of test compounds are made in 100% DMSO, followed by a 100-fold dilution into RPMI/1% FCS. For each well, 10 μL was then transferred to the deep well plate containing 90 μL of PBMC cells. […]
Following stimulation with anti-IgM, PBMCs were incubated on ice for 30 min with anti-CD69-FITC, anti-CD19-BV421 (BD Biosciences #555530 and #562440, respectively) and 7AAD (Life Technologies # A1310). Flow cytometry was performed and fluorescence values were obtained from the CD69-FITC channel in CD19+ gated life B cells. EC50 values are determined by curve fitting of the experimental results using GraphPad Prism.
PBMC assay: Cryopreserved PBMC were thawed, washed, and suspended at 2×10^5 cells/well in RPMI+10% FBS in 96-well plates. […] EC50 values were determined by curve fitting of the experimental results using Dotmatics. […]

ERBB2 = ERBB2 (Homo sapiens (Human), UniProt P04626); test: ERBB2 Z'-LYTE kinase assay; type: biochemical; conditions: 1 h pre-incubation, Km ATP
ERBB2, sequence (P04626 23-1255): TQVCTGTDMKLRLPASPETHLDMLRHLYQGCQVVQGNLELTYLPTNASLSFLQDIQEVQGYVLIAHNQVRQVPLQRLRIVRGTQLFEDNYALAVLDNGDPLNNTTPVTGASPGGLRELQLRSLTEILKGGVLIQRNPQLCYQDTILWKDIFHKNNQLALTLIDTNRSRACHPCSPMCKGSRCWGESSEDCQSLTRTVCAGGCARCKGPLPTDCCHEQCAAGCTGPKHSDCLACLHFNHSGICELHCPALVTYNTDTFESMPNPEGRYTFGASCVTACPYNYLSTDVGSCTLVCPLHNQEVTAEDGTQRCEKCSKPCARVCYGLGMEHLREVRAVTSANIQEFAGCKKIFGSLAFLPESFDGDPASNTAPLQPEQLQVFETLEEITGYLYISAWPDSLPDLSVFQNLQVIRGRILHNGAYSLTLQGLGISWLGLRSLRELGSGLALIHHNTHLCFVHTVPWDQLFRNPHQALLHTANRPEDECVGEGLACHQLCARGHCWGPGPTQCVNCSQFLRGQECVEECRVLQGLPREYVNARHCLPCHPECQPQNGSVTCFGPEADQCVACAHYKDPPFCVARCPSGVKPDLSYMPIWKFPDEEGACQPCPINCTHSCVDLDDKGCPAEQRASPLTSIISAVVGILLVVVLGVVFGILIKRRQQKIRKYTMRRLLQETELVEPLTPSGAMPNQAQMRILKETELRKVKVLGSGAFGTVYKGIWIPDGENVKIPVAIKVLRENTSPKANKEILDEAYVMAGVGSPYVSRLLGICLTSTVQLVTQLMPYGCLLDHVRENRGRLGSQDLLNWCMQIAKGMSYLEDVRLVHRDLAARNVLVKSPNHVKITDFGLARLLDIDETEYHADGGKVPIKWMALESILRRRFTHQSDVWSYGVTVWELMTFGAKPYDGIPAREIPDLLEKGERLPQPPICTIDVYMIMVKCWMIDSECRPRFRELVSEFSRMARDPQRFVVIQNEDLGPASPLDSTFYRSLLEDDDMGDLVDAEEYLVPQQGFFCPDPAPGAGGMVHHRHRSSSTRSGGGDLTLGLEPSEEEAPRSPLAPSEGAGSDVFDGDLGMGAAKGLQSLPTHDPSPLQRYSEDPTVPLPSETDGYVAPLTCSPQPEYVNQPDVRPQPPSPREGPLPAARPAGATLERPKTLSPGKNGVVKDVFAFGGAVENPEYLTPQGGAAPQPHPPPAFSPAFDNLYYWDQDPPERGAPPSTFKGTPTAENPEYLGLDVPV
Protocol: BMX, TXK, EGFR, ERBB2, ERBB4, JAK3, BLK kinase activity was measured using the Z′-LYTE assay at Thermo Fisher. A 10-point dose response (final concentration in assay ranged from 10 μM to 0.5 nM in 3-fold dilution per dilution step) was generated with 1 h incubation of the test compound with the kinase prior to initiation of the kinase reaction by the addition of ATP. ATP concentration in the assay was Km ATP for the different kinases. IC50 values are determined by curve fitting of the experimental results at Thermo Fisher.

BRK (PTK6) = BRK (PTK6) (Homo sapiens (Human), UniProt Q13882); test: DiscoveRx Kd dose response, BRK (PTK6); type: binding
BRK (PTK6), sequence (Q13882 whole entry): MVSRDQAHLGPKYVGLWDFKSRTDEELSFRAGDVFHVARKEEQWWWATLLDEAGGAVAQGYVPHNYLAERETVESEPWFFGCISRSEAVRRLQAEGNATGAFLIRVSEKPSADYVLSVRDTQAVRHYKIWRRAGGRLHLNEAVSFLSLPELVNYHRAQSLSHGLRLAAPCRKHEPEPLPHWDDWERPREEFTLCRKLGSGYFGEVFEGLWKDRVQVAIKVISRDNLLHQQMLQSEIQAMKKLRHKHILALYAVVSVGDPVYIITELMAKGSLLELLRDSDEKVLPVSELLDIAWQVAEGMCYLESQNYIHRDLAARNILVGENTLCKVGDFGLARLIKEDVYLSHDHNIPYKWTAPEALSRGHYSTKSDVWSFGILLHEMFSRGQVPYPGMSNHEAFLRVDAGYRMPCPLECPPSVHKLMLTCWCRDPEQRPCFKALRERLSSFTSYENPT
Protocol: (§1) Kinase profiling was performed with M27 was done at DiscoveRx at a single dose of 1 μM on all available kinases (KINOMEscan). The overall kinase selectivity score is in Table 6. […] Kinases inhibited >65% at 1 μM for M27 were followed up with a dose response at DiscoveRx. The M27 had IC50 values <1 μM for almost the same set of kinases with exception of TXK, but with additional inhibition of BRK (PTK6).

TXK = TXK (Homo sapiens (Human), UniProt P42681); test: DiscoveRx Kd dose response, TXK; type: binding
TXK, sequence (P42681 whole entry): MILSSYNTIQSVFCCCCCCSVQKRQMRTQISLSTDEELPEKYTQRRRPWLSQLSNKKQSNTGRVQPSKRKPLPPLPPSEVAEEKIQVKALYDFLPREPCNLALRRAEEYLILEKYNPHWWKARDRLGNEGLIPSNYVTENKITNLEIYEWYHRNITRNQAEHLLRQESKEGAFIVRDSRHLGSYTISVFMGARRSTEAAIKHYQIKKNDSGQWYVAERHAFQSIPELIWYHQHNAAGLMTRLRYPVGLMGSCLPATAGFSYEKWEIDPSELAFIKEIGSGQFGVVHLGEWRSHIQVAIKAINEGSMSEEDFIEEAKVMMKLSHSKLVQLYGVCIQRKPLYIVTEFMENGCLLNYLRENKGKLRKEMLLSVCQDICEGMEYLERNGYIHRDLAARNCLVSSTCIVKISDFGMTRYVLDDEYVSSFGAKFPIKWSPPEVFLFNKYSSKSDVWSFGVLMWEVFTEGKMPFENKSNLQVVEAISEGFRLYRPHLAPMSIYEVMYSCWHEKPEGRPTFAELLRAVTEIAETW
Protocol: as §1

CYP3A4/5 = test: CYP inhibition, CYP3A4/5; type: in vitro ADME
BMX = BMX (Homo sapiens (Human), UniProt P51813); test: DiscoveRx Kd dose response, BMX; type: binding
BMX, sequence (P51813 whole entry): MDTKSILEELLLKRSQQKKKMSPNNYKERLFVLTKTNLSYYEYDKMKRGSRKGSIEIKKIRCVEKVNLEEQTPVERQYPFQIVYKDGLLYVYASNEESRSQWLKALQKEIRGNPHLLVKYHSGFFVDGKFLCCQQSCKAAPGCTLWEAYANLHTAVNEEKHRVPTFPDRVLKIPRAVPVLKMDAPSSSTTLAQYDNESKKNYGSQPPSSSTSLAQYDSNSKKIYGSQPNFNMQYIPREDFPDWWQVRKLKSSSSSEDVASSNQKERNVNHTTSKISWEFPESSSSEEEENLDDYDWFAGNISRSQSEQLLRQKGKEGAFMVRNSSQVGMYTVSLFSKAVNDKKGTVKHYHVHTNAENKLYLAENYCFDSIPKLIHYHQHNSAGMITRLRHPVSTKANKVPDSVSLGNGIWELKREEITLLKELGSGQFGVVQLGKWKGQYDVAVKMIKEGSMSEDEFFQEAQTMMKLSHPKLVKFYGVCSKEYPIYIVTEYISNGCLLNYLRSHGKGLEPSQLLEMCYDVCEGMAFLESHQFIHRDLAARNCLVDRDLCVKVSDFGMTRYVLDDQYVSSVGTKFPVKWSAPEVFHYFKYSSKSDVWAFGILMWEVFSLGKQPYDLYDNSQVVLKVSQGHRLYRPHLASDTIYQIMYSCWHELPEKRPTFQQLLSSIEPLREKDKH
Protocol: as §1

TEC = TEC (Homo sapiens (Human), UniProt P42680); test: TEC LanthaScreen assay; type: binding; conditions: 2h incubation
TEC, sequence (P42680 whole entry): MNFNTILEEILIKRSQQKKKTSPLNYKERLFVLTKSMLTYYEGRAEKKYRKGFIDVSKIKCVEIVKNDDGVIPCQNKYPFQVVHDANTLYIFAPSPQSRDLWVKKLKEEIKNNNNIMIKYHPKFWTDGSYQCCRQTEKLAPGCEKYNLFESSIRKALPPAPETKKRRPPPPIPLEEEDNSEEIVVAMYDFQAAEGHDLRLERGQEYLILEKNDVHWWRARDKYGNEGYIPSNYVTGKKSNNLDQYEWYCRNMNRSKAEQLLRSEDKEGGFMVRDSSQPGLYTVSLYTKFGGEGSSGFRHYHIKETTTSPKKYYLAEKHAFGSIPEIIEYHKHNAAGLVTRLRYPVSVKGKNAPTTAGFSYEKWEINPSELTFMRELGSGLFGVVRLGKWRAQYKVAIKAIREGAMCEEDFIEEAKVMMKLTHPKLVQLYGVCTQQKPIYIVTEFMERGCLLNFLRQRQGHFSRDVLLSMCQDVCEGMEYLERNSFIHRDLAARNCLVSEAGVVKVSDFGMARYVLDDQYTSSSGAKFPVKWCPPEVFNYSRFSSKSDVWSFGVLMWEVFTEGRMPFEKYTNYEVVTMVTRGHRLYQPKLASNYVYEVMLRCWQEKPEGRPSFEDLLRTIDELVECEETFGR
Protocol: TEC enzyme activity is measured using the LanthaScreen assay from ThermoFisher as outlined below.
TEC enzyme (LifeTech # PV3269) and Eu-anti-HIS antibody (Invitrogen # PV5596) are mixed and diluted in kinase buffer (50 mM Hepes pH 7.5+10 mM MgCl2+1 mM EGTA+0.01% Brij-35) to 3 and 6 nM, respectively. Final concentration in the assay for enzyme and antibody are 1 and 2 nM, respectively.
Tracer (Kinase Tracer 178, Invitrogen # PV5593) is diluted in Kinase buffer to 3 nM. Final concentration in the assay is 1 nM.
Serial dilutions log 10 from 1 mM to 3.16 nM of test compounds are made in 100% DMSO. The dilutions in DMSO are then diluted 33-fold in Kinase buffer (50 mM Hepes pH 7.5+10 mM MgCl2+1 mM EGTA+0.01% Brij-35).
The assay is performed as follows: 5 μL/well of TEC enzyme and EU-anti-His antibody dilution is mixed with 5 μL/well tracer dilution and 5 μL/well of compound dilution in Kinase buffer. Final compound concentration in the assay ranged from 10 μM to 0.316 nM, with 1% DMSO final concentration in assay. Following a 2h incubation at room the TR-FRET signal at 615 nm and 665 nm is read. The ratio 665/615 was used to calculate values expressed as percentage of the difference in readout (S/N) of the controls with and without Tracer. IC50 values were determined by curve fitting of the experimental results in Dotmatics.

Row | Compound | EC50 (anti-IgM-induced CD69) [nM] | IC50 (ERBB2) [nM] | Kd (BRK (PTK6)) [nM] | Kd (TXK) [nM] | CYP3A4/5 inhibition (CYP3A4/5) | Kd (BMX) [nM] | IC50 (TEC) [nM]
1 | CC#CC(=O)NCCCC(=O)c1nc(-c2ccc(C(=O)Nc3ccccn3)cc2)c2c(N)nccn12 [Formula (I), 4-(8-amino-3-(4-(but-2-ynamido)butanoyl)imidazo[1,5-a]pyrazin-1-yl)-N-(pyridin-2-yl)benzamide] | 26 ± 16 | 552 ± 166 | 150 | 1100 | does not inhibit | 190 | 345 ± 34
2 | CC#CC(=O)NCCCC(=O)c1nc(-c2ccc(C(=O)Nc3ccccn3)c(OC)c2)c2c(N)nccn12 [Formula (II), 4-(8-amino-3-(4-(but-2-ynamido)butanoyl)imidazo[1,5-a]pyrazin-1-yl)-2-methoxy-N-(pyridin-2-yl)benzamide] | 19 ± 6 | – | – | – | – | – | –
